Data published in patent US6608082B1, “Treatment of erectile dysfunction using isoquinoline compound melanocortin receptor ligands” (Lion Bioscience AG, priority 1998, dated 2003).
Read-outs that look alike come from different tables or passages of the source.

Legend:
[1] = target: T1, MCR-1 (Homo sapiens, UniProt Q01726); experiment: Melanocortin receptor binding assay, competition with 125I-HP 467, HEK 293 cells expressing hMCR-1; settings: for IC50: read-out: MC-1 IC50; for % Disp. MC-1 10 μM: displacement of 125I-HP 467 at 10 μM isoquinoline compound; for % Disp. of 125I-HP 467 (first of duplicate) / % Disp. of 125I-HP 467 (second of duplicate): 10 μM isoquinoline compound; for % Disp. of 125I-HP 467 (first of duplicate): HEK 293 cells expressing MCR-1, duplicate 1; for % Disp. of 125I-HP 467 (second of duplicate): HEK 293 cells expressing MCR-1, duplicate 2; for effectiveness as MC receptor ligand: binding to MC receptors, Table 1; for specificity for at least one MC receptor over another MC receptor: MCR-1 versus MCR-4 binding
T1 construct: expressed in transfected cells; host or cells: HEK 293
T1 sequence (Q01726 whole entry): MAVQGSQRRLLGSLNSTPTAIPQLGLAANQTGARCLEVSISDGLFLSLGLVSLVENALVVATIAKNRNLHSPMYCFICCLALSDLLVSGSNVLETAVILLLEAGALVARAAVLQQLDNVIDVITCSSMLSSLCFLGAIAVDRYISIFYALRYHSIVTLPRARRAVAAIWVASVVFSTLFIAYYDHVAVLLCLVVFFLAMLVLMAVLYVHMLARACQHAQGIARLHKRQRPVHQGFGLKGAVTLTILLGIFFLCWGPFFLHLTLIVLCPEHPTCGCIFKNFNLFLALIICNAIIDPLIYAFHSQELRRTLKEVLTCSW
Outline: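 Test compounds compete on intact HEK 293 cells carrying hMCR-1 (2×10^4 per tube) or hMCR-4 (4×10^3 per tube), suspended in PBS, 10% calf serum, 1 mM CaCl2.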

[2] = target: T2, MCR-3 (Homo sapiens, UniProt P41968); experiment: Melanocortin receptor binding assay, competition with 125I-HP 467, HEK 293 cells expressing hMCR-3; settings: binding to MCR-3, HEK 293 cells; read-out: MC-3 IC50
T2 construct: expressed in transfected cells; host or cells: HEK 293
T2 sequence (P41968 whole entry): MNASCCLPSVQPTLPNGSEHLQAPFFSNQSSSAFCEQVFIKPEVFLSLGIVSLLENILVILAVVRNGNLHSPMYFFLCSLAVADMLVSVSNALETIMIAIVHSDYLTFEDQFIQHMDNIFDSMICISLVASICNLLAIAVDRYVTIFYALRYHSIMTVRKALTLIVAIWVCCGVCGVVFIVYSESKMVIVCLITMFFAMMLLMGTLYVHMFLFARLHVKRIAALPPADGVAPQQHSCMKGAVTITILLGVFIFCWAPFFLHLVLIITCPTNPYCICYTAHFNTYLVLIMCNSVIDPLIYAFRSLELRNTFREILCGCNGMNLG
Excerpt: All cell culture media and reagents were obtained from GibcoBRL (Gaithersburg Md.), except for COSMIC CALF SERUM (HyClone; Logan Utah). HEK-293 cell lines were transfected with the human MC receptors hMCR-1, hMCR-3, and hMCR-4 (Gantz et al., Biochem. Biophys. Res. Comm. 200:1214-1220 (1994); Gantz et al., J. Biol. Chem. 268:8246-8250 (1993); Gantz et al. J. Biol. Chem. 268:15174-15179 (1993); Haskell-Leuvano et al., Biochem. Biophys. Res. Comm. 204:1137-1142 (1994); each of which is incorporated herein by reference). Vectors for construction of an hMCR-5 expressing cell line were obtained, and a line of HEK 293 cells expressing hMCR-5 was constructed (Gantz, supra, 1994). hMCR-5 has been described previously (Franberg et al., Biochem. Biophys. Res. Commun. 236:489-492 (1997); Chowdhary et al., Cytogenet. Cell Genet. 68:1-2 (1995); Chowdhary et al., Cytogenet. Cell Genet. 68:79-81 (1995), each of which is incorporated herein by reference). HEK 293 cells were maintained in DMEM, 25 mM HEPES, 2 mM glutamine, non-essential amino acids, vitamins, sodium pyruvate, 10% COSMIC CALF SERUM, 100 units/ml penicillin, 100 μg/ml streptomycin and 0.2 mg/ml G418 to maintain selection.
Before assaying, cells were washed once with phosphate buffered saline (“PBS”; without Ca^2+ and Mg^2+), and stripped from the flasks using 0.25% trypsin and 0.5 mM EDTA. Cells were suspended in PBS, 10% COSMIC CALF SERUM and 1 mM CaCl2. Cell suspensions were prepared at a density of 2×10^4 cells/ml for HEK 293 cells expressing hMCR-3, hMCR-4 or hMCR-5, and 1×10^5 cells/ml for HEK 293 cells expressing hMCR-1. Suspensions were placed in a water bath and allowed to warm to 37° C. for 1 hr.
Binding assays were performed in a total volume of 250 μl for HEK 293 cells. Control and test compounds were dissolved in distilled water. ^125I-HP 467 (50,000 dpm) (2000 Ci/mmol) (custom labeled by Amersham; Arlington Heights Ill.) was prepared in 50 mM Tris, pH 7.4, 2 mg/ml BSA, 10 mM CaCl2, 5 mM MgCl2, 2 mM EDTA and added to each tube. To each tube was added 4×10^3 HEK 293 cells expressing hMCR-3, hMCR-4 or hMCR-5, or 2×10^4 cells expressing hMCR-1. Assays were incubated for 2.5 hr at 37° C.
GF/B filter plates were prepared by soaking for at least one hour in 5 mg/ml BSA and 10 mM CaCl2. Assays were filtered using a Brandel 96-well cell harvester (Brandel Inc.; Gaithersburg, Md.). The filters were washed four times with cold 50 mM Tris, pH 7.4, the filter plates were dehydrated for 2 hr and 35 μl of MICROSCINT was added to each well. Filter plates were counted using a Packard Topcount (Packard Instrument Co.) and data analyzed using GraphPad PRISM v2.0 (GraphPad Software Inc.; San Diego Calif.) and Microsoft EXCEL v5.0a (Microsoft Corp.; Redmond Wash.).
To assay isoquinoline compounds, binding assays were performed in duplicate in a 96 well format. HP 467 was prepared in 50 mM Tris, pH 7.4, and ^125I-HP 467 was diluted to give 100,000 dpm per 50 μl. An isoquinoline compound, synthesized as described in Example I, was added to the well in 25 μl aliquots. A 25 μl aliquot of ^125I-HP 467 was added to each well. A 0.2 ml aliquot of suspended cells was added to each well to give the cell numbers indicate above, and the cells were incubated at 37° C. for 2.5 hr. Cells were harvested on GF/B filter plates as described above and counted.
Some of the isoquinoline compounds were further tested for binding to MCR-3 and MCR-5.

[3] = system: IL-10; experiment: Increasing levels of IL-10 in mice (plasma ELISA); type: in vivo; settings: for % IL-10 Induction, IP 30: 30 μg per mouse; for % IL-10 Induction, IP 30 / % IL-10 Induction, IP 100 / % IL-10 Induction, IP 300 / % IL-10 Induction, Oral 600 / % IL-10 Induction, Oral 300: mouse plasma, 90 or 105 minutes; for % IL-10 Induction, IP 100: 100 μg per mouse; for % IL-10 Induction, IP 300 / % IL-10 Induction, Oral 300: 300 μg per mouse; for increase of IL-10: plasma levels in mice; for % IL-10 Induction, Oral 600: 600 μg per mouse
Description: Isoquinoline compounds were administered intraperitoneally to mice in doses of 30, 100 or 300 μg/mouse or orally in doses of 300 or 600 μg/mouse. Levels of IL-10 were measured 90 or 105 minutes after administration as indicated. Samples were collected and diluted, when appropriate, as described in Example VI. A 100 μl sample of plasma was assayed by ELISA for IL-10. Briefly, ELISA plates were coated with rat anti-mouse IL-10 monoclonal antibody (Pharmingen; San Diego Calif.). Samples or known concentrations of IL-10 were added to the coated plates and incubated for 2 hr at 37° C. Plates were washed and incubated with biotinylated rat anti-mouse IL-10 (R&D Systems; Minneapolis Minn.) for 1 hr at 37° C. Plates were washed and incubated with streptavidin-HRP 30 min at 37° C., and HRP activity was detected with hydrogen peroxide and TMB using standard immunoassay procedures.

[4] = competition with 125I-HP 467, HEK 293 cells expressing MCR-1

Structure (SMILES) | IC50 ([1]; TRG 2405 section, inhibition of binding of 125I-HP 467, HEK 293 cells expressing MCR-1) [µM] | % Disp. MC-1 10 μM ([1]; first of duplicate) [%] | % Disp. MC-1 10 μM ([1]; second of duplicate) [%] | IC50 [2] [µM] | % Disp. of 125I-HP 467 (first of duplicate) [1] [%] | % Disp. of 125I-HP 467 (second of duplicate) [1] [%] | IC50 [1, 4] [µM] | % IL-10 Induction, IP 30 [3] [%] | % IL-10 Induction, IP 100 [3] [%] | % IL-10 Induction, IP 300 [3] [%] | effectiveness as MC receptor ligand [1] | increase of IL-10 [3] | % IL-10 Induction, Oral 600 [3] [%] | specificity for at least one MC receptor over another MC receptor [1] | % IL-10 Induction, Oral 300 [3] [%]
CNC(CN)CN1Cc2ccccc2C(CNC2CCCCC2)C1c1ccc(O)cc1 (stereo not shown) [TRG 2405-156] | 17 | 25.9 | 21.3 | 23.7 |  |  |  | 17 ± 23 | −5 ± 11 | 43 ± 34 |  |  |  |  | 
CNC(CN)CCCCN1Cc2ccccc2C(CNC2CCCCC2)C1c1ccc(Cl)cc1Cl (stereo not shown) [TRG 2405-190] |  |  |  | 2.24 | 79.4 | 81 |  | 25 ± 30 | 13 ± 14 | 109 ± 31 | particularly effective MC receptor ligands | particularly effective at increasing IL-10 |  |  | 
CNC(CN)CCCCN1Cc2ccccc2C(CNC2CCCCC2)C1c1ccc(N(C)C)cc1 (stereo not shown) [TRG 2405-235] |  |  |  | 22.3 | 64.2 | 26.3 |  | −11 ± 13 | 45 ± 18 | 113 ± 15 |  |  |  |  | 
CNC(CN)CCCCN1Cc2ccccc2C(CNC2CCCCC2)C1c1ccc(C(F)(F)F)cc1 (stereo not shown) [TRG 2405-238] |  |  |  | > 10 | 76.8 | 72.8 |  | −17 ± 7 | 151 ± 26 | 118 ± 25 |  |  | 65 ± 15 |  | 
CCNc1ccc(C2C(CNC3CCCCC3)c3ccccc3CN2CCCCC(CN)NC)cc1 (stereo not shown) [TRG 2405-239] |  |  |  | 39.8 | 86.6 | 85.2 |  | 44 ± 35 | −29 ± 6 | 197 ± 34 | particularly effective MC receptor ligands |  | 46 ± 14 |  | 
CNC(CN)CCCCN1Cc2ccccc2C(CNC2CCCCC2)C1c1ccc(-c2ccccc2)cc1 (stereo not shown) [TRG 2405-241] |  |  |  | 7.45 | 89.5 | 88.8 |  | 117 ± 21 | 310 ± 35 | 406 ± 46 | particularly effective MC receptor ligands | particularly effective at increasing IL-10 | 77 ± 37 | about 10 fold | 9 ± 23

The next lines start with results.

IC50 ([1]; TRG 2405 section, inhibition of binding of 125I-HP 467, HEK 293 cells expressing MCR-1) [µM] | % Disp. MC-1 10 μM ([1]; first of duplicate) [%] | % Disp. MC-1 10 μM ([1]; second of duplicate) [%] | IC50 [2] [µM] | % Disp. of 125I-HP 467 (first of duplicate) [1] [%] | % Disp. of 125I-HP 467 (second of duplicate) [1] [%] | IC50 [1, 4] [µM] | Structure (SMILES) | % IL-10 Induction, IP 30 [3] [%] | % IL-10 Induction, IP 100 [3] [%] | % IL-10 Induction, IP 300 [3] [%] | effectiveness as MC receptor ligand [1] | increase of IL-10 [3] | % IL-10 Induction, Oral 600 [3] [%] | specificity for at least one MC receptor over another MC receptor [1] | % IL-10 Induction, Oral 300 [3] [%]
 |  |  | 0.55 | 86 | 83.4 |  | CNC(CN)CCCCN1Cc2ccccc2C(CNC2CCCCC2)C1c1ccc(Br)cc1 (stereo not shown) [TRG 2405-242] |  | −9 ± 7 |  |  |  |  |  | 
 |  |  | > 10 | 26.5 | 20.7 |  | CNC(CN)CCCCN1Cc2ccccc2C(CNC2CCCCC2)C1c1ccc(O)cc1 (stereo not shown) [TRG 2405-246] |  |  |  |  |  | 30 ± 5 |  | 
 |  |  | 6.49 | 95.1 | 95.5 |  | CNC(CN)CCCCN1Cc2ccccc2C(CNC2CCCCC2)C1c1ccc(Oc2ccccc2)cc1 (stereo not shown) [TRG 2405-252] | 2 ± 13 |  | 307 ± 43 | particularly effective MC receptor ligands | particularly effective at increasing IL-10 | 69 ± 19 | about 10 fold | 
 |  |  |  |  |  | 0.22 | CCCCNc1ccc(C2C(CNCc3ccccc3O)c3ccccc3CN2CCCCC(CN)NC)cc1 (stereo not shown) [TRG 2409-2] | −30 ± 11 |  | 157 ± 57 | particularly effective MC receptor ligands |  | 82 ± 19 |  | 39 ± 15
 |  |  |  |  |  | 0.1 | CCCCNc1ccc(C2C(CNC3CCCCC3)c3ccccc3CN2CCCCC(CN)NC)cc1 (stereo not shown) [TRG 2409-14] | −27 ± 8 |  | 150 ± 50 | particularly effective MC receptor ligands |  | 193 ± 50 |  | 79 ± 29
